Assay: resistivity in solution, crystalline versus amorphous form
Type: physicochemical
Conditions: compared with the amorphous form at an equivalent concentration in solution

CCNC(=O)[C@H]1O[C@@H](n2cnc3c(NCC(c4ccccc4)c4ccccc4)nc(C(=O)NCCNC(=O)NC4CCN(c5ccccn5)CC4)nc32)[C@H](O)[C@@H]1O [crystalline form, 6-[(2,2-diphenylethyl)amino]-9-(N-ethyl-β-D-ribofuranosyluronamide)-N-(2-{N′-[1-(2-pyridyl)-4-piperidyl]ureido}ethyl)-9H-purine-2-carboxamide]
resistivity in solution: higher resistivity than the amorphous form

Source: patent US20030144243A1, “Combination of a crystalline drug form and atiotropium salt” (priority 2001, published 2003)
